Converted amounts (≈) assume the structure as drawn.
Tests used:
[1] = tested on: Enterococcus faecalis; experiment: Antibacterial activity against Enterococcus faecalis 14-2; assay type: functional
[2] = tested on: Enterococcus faecalis; experiment: Antibacterial activity against Enterococcus faecalis 14-3; assay type: functional
[3] = tested on: Staphylococcus aureus; experiment: Antibacterial activity against methicillin-sensitive Staphylococcus aureus 14-4; assay type: functional
[4] = tested on: Staphylococcus epidermidis; experiment: Antibacterial activity against methicillin-sensitive Staphylococcus epidermidis 14-2; assay type: functional
[5] = tested on: Escherichia coli; experiment: Antibacterial activity against Escherichia coli 14-1; assay type: functional
[6] = tested on: Staphylococcus epidermidis; experiment: Antibacterial activity against methicillin-resistant Staphylococcus epidermidis 14-3; assay type: functional
[7] = tested on: Enterococcus faecalis; experiment: Antibacterial activity against Enterococcus faecalis 14-5; assay type: functional
[8] = tested on: Staphylococcus aureus; experiment: Antibacterial activity against methicillin-resistant Staphylococcus aureus 14-2; assay type: functional
[9] = tested on: Staphylococcus epidermidis; experiment: Antibacterial activity against methicillin-resistant Staphylococcus epidermidis 14-4; assay type: functional
[10] = tested on: Escherichia coli; experiment: Antibacterial activity against Escherichia coli 14-2; assay type: functional
[11] = tested on: Staphylococcus epidermidis; experiment: Antibacterial activity against methicillin-resistant Staphylococcus epidermidis 14-2; assay type: functional
[12] = tested on: Enterococcus faecalis; experiment: Antibacterial activity against Enterococcus faecalis 14-1; assay type: functional
[13] = tested on: Staphylococcus aureus; experiment: Antibacterial activity against methicillin-sensitive Staphylococcus aureus 14-3; assay type: functional
[14] = tested on: Staphylococcus aureus; experiment: Antibacterial activity against methicillin-resistant Staphylococcus aureus 14-1; assay type: functional
[15] = tested on: Staphylococcus epidermidis; experiment: Antibacterial activity against methicillin-sensitive Staphylococcus epidermidis 14-1; assay type: functional
[16] = tested on: Staphylococcus aureus; experiment: Antibacterial activity against methicillin-resistant Staphylococcus aureus 14-5; assay type: functional
[17] = tested on: Staphylococcus epidermidis; experiment: Antibacterial activity against methicillin-sensitive Staphylococcus epidermidis 14-3; assay type: functional
[18] = tested on: Escherichia coli; experiment: Antibacterial activity against Escherichia coli 14-1 expressing extended-spectrum beta-lactamase; assay type: functional
[19] = tested on: Staphylococcus aureus; experiment: Antibacterial activity against methicillin-sensitive Staphylococcus aureus 14-1; assay type: functional
[20] = tested on: Staphylococcus epidermidis; experiment: Antibacterial activity against methicillin-resistant Staphylococcus epidermidis 14-1; assay type: functional
[21] = tested on: Staphylococcus aureus; experiment: Antibacterial activity against methicillin-resistant Staphylococcus aureus 14-4; assay type: functional
[22] = tested on: Staphylococcus aureus; experiment: Antibacterial activity against methicillin-sensitive Staphylococcus aureus 14-2; assay type: functional
[23] = tested on: Escherichia coli; experiment: Antibacterial activity against Escherichia coli 14-2 expressing extended-spectrum beta-lactamase; assay type: functional
[24] = Half life in Sprague-Dawley rat at 2 mg/kg, iv; assay type: ADME, organism-based; settings: in vivo
[25] = Tmax in Sprague-Dawley rat at 2 mg/kg, iv; assay type: ADME, organism-based; settings: in vivo
[26] = AUC (0 to infinity) in Sprague-Dawley rat at 10 mg/kg, po; assay type: ADME, organism-based; parameters: dose 10 mg/kg, time infinity, route oral; settings: Sprague-Dawley, in vivo
[27] = AUC (0 to t) in Sprague-Dawley rat at 2 mg/kg, iv; assay type: ADME, organism-based; settings: Sprague-Dawley, in vivo
[28] = MRT (0 to t) in Sprague-Dawley rat at 2 mg/kg, iv; assay type: ADME, organism-based; settings: in vivo
[29] = MRT (0 to t) in Sprague-Dawley rat at 10 mg/kg, po; assay type: ADME, organism-based; settings: in vivo
[30] = Cmax in Sprague-Dawley rat at 10 mg/kg, po; assay type: ADME, organism-based; parameters: dose 10 mg/kg, route oral; settings: in vivo
[31] = Oral bioavailability in Sprague-Dawley rat at 10 mg/kg; assay type: ADME, organism-based; settings: in vivo
[32] = Clearance in Sprague-Dawley rat at 10 mg/kg, po; assay type: ADME, organism-based; settings: Sprague-Dawley, in vivo
[33] = Clearance in Sprague-Dawley rat at 2 mg/kg, iv; assay type: ADME, organism-based; settings: in vivo
[34] = AUC (0 to t) in Sprague-Dawley rat at 10 mg/kg, po; assay type: ADME, organism-based; settings: in vivo
[35] = Volume of distribution at steady state in Sprague-Dawley rat at 2 mg/kg, iv; assay type: ADME, organism-based; settings: in vivo, read-out: Vdss
[36] = Cmax in Sprague-Dawley rat at 2 mg/kg, iv; assay type: ADME, organism-based; parameters: dose 2 mg/kg, route intravenous; settings: in vivo
[37] = AUC (0 to infinity) in Sprague-Dawley rat at 2 mg/kg, iv; assay type: ADME, organism-based; parameters: dose 2 mg/kg, route intravenous, time infinity; settings: Sprague-Dawley, in vivo
[38] = tested on: Rattus norvegicus; experiment: Volume of distribution at steady state in Sprague-Dawley rat at 10 mg/kg, po; assay type: ADME, organism-based; settings: in vivo
[39] = Tmax in Sprague-Dawley rat at 10 mg/kg, po; assay type: ADME, organism-based; settings: in vivo
[40] = Half life in Sprague-Dawley rat at 10 mg/kg, po; assay type: ADME, organism-based; settings: Sprague-Dawley, in vivo

SMILES	MIC [1]	MIC [2]	MIC [3]	MIC [4]	MIC [5]	MIC [6]	MIC [7]	MIC [8]	MIC [9]	MIC [10]	MIC [11]	MIC [12]	MIC [13]	MIC [14]	MIC [15]	MIC [16]	MIC [17]	MIC [18]	MIC [19]	MIC [20]	other results
CCCC[C@H](CN(O)C=O)C(=O)N1CCC[C@H]1C(=O)Nc1ccc(F)c[n+]1[O-]	2 µg/mL (≈ 5.05 µM)	2 µg/mL (≈ 5.05 µM)	0.5 µg/mL (≈ 1.26 µM)	0.5 µg/mL (≈ 1.26 µM)	64 µg/mL (≈ 161 µM)	0.06 µg/mL (≈ 0.151 µM)	128 µg/mL (≈ 323 µM)	1 µg/mL (≈ 2.52 µM)	0.125 µg/mL (≈ 0.315 µM)	64 µg/mL (≈ 161 µM)	0.125 µg/mL (≈ 0.315 µM)	2 µg/mL (≈ 5.05 µM)	0.5 µg/mL (≈ 1.26 µM)	1 µg/mL (≈ 2.52 µM)	0.06 µg/mL (≈ 0.151 µM)	0.5 µg/mL (≈ 1.26 µM)	0.06 µg/mL (≈ 0.151 µM)	1 µg/mL (≈ 2.52 µM)	0.5 µg/mL (≈ 1.26 µM)	0.125 µg/mL (≈ 0.315 µM)	MIC [21]: 1 µg/mL (≈ 2.52 µM); MIC [22]: 0.5 µg/mL (≈ 1.26 µM); MIC [23]: 64 µg/mL (≈ 161 µM)
CCCC[C@H](CN(O)C=O)C(=O)N1CC2(CC2)C[C@H]1C(=O)Nc1ccc(F)c[n+]1[O-]	0.5 µg/mL (≈ 1.18 µM)	0.5 µg/mL (≈ 1.18 µM)	0.125 µg/mL (≈ 0.296 µM)	0.125 µg/mL (≈ 0.296 µM)	128 µg/mL (≈ 303 µM)	0.03 µg/mL (≈ 0.071 µM)	128 µg/mL (≈ 303 µM)	0.25 µg/mL (≈ 0.592 µM)	0.125 µg/mL (≈ 0.296 µM)	64 µg/mL (≈ 151 µM)	0.06 µg/mL (≈ 0.142 µM)	0.25 µg/mL (≈ 0.592 µM)	0.125 µg/mL (≈ 0.296 µM)	0.25 µg/mL (≈ 0.592 µM)	0.03 µg/mL (≈ 0.071 µM)	0.125 µg/mL (≈ 0.296 µM)	0.03 µg/mL (≈ 0.071 µM)	1 µg/mL (≈ 2.37 µM)	0.125 µg/mL (≈ 0.296 µM)	0.03 µg/mL (≈ 0.071 µM)	half-life [24]: 3.63 h; Tmax [25]: 8.4 min; AUC(0-inf) [26]: 1990 ng·h/mL; AUC(0-t) [27]: 1260 ng·h/mL; MRT last [28]: 1.65 h; MRT last [29]: 2.04 h; Cmax [30]: 1850 ng/mL; bioavailability [31]: 31%; CL/F [32]: 91.3 mL/min/kg; clearance [33]: 26.2 mL/min/kg; AUC(0-t) [34]: 1960 ng·h/mL; Vd [35]: 2.6 L/kg; Cmax [36]: 1780 ng/mL; AUC(0-inf) [37]: 1280 ng·h/mL; MIC [21]: 0.125 µg/mL (≈ 0.296 µM); Vdss [38]: 39.4 L/kg; Tmax [39]: 0.25 h; MIC [22]: 0.125 µg/mL (≈ 0.296 µM); half-life [40]: 4.94 h; MIC [23]: 64 µg/mL (≈ 151 µM)
CCCC[C@H](CN(O)C=O)C(=O)N1CC2(CC2)C[C@H]1c1nnc2ccccn12	8 µg/mL (≈ 20.8 µM)	8 µg/mL (≈ 20.8 µM)	1 µg/mL (≈ 2.59 µM)	0.5 µg/mL (≈ 1.3 µM)	128 µg/mL (≈ 332 µM)	0.25 µg/mL (≈ 0.649 µM)	8 µg/mL (≈ 20.8 µM)	1 µg/mL (≈ 2.59 µM)	1 µg/mL (≈ 2.59 µM)	128 µg/mL (≈ 332 µM)	0.5 µg/mL (≈ 1.3 µM)	4 µg/mL (≈ 10.4 µM)	1 µg/mL (≈ 2.59 µM)	1 µg/mL (≈ 2.59 µM)	0.25 µg/mL (≈ 0.649 µM)	1 µg/mL (≈ 2.59 µM)	0.5 µg/mL (≈ 1.3 µM)	2 µg/mL (≈ 5.19 µM)	1 µg/mL (≈ 2.59 µM)	0.5 µg/mL (≈ 1.3 µM)	MIC [21]: 1 µg/mL (≈ 2.59 µM); MIC [22]: 1 µg/mL (≈ 2.59 µM); MIC [23]: 128 µg/mL (≈ 332 µM)
CCCC[C@H](CN(O)C=O)C(=O)N1CC2(CC2)C[C@H]1C(=O)Nc1cccc(Nc2ncccn2)c1	1 µg/mL (≈ 2.08 µM)	1 µg/mL (≈ 2.08 µM)	0.125 µg/mL (≈ 0.26 µM)	0.25 µg/mL (≈ 0.52 µM)	128 µg/mL (≈ 266 µM)	0.06 µg/mL (≈ 0.125 µM)	1 µg/mL (≈ 2.08 µM)	0.25 µg/mL (≈ 0.52 µM)	0.25 µg/mL (≈ 0.52 µM)	128 µg/mL (≈ 266 µM)	0.25 µg/mL (≈ 0.52 µM)	0.5 µg/mL (≈ 1.04 µM)	0.25 µg/mL (≈ 0.52 µM)	0.25 µg/mL (≈ 0.52 µM)	0.125 µg/mL (≈ 0.26 µM)	0.125 µg/mL (≈ 0.26 µM)	0.125 µg/mL (≈ 0.26 µM)	1 µg/mL (≈ 2.08 µM)	0.25 µg/mL (≈ 0.52 µM)	0.125 µg/mL (≈ 0.26 µM)	MIC [21]: 0.25 µg/mL (≈ 0.52 µM); MIC [22]: 0.25 µg/mL (≈ 0.52 µM); MIC [23]: 64 µg/mL (≈ 133 µM)
CCCC[C@H](CN(O)C=O)C(=O)N1CC2(CC2)C[C@H]1c1nnc(-c2ccccn2)o1	8 µg/mL (≈ 19.3 µM)	8 µg/mL (≈ 19.3 µM)	2 µg/mL (≈ 4.84 µM)	1 µg/mL (≈ 2.42 µM)	128 µg/mL (≈ 310 µM)	0.5 µg/mL (≈ 1.21 µM)	8 µg/mL (≈ 19.3 µM)	4 µg/mL (≈ 9.67 µM)	4 µg/mL (≈ 9.67 µM)	64 µg/mL (≈ 155 µM)	0.5 µg/mL (≈ 1.21 µM)	4 µg/mL (≈ 9.67 µM)	2 µg/mL (≈ 4.84 µM)	4 µg/mL (≈ 9.67 µM)	1 µg/mL (≈ 2.42 µM)	2 µg/mL (≈ 4.84 µM)	0.5 µg/mL (≈ 1.21 µM)	0.5 µg/mL (≈ 1.21 µM)	4 µg/mL (≈ 9.67 µM)	1 µg/mL (≈ 2.42 µM)	MIC [21]: 4 µg/mL (≈ 9.67 µM); MIC [22]: 2 µg/mL (≈ 4.84 µM); MIC [23]: 64 µg/mL (≈ 155 µM)
CCCC[C@H](CN(O)C=O)C(=O)N1CC2(CC2)C[C@H]1C(=O)Nc1cc[nH]n1	64 µg/mL (≈ 170 µM)	64 µg/mL (≈ 170 µM)	16 µg/mL (≈ 42.4 µM)	16 µg/mL (≈ 42.4 µM)	> 128 µg/mL	4 µg/mL (≈ 10.6 µM)	> 128 µg/mL	32 µg/mL (≈ 84.8 µM)	8 µg/mL (≈ 21.2 µM)	> 128 µg/mL	8 µg/mL (≈ 21.2 µM)	64 µg/mL (≈ 170 µM)	16 µg/mL (≈ 42.4 µM)	16 µg/mL (≈ 42.4 µM)	4 µg/mL (≈ 10.6 µM)	8 µg/mL (≈ 21.2 µM)	4 µg/mL (≈ 10.6 µM)	16 µg/mL (≈ 42.4 µM)	16 µg/mL (≈ 42.4 µM)	8 µg/mL (≈ 21.2 µM)	MIC [21]: 16 µg/mL (≈ 42.4 µM); MIC [22]: 16 µg/mL (≈ 42.4 µM); MIC [23]: 128 µg/mL (≈ 339 µM)

Reference: ChEMBL document CHEMBL3822420, “New peptide deformylase inhibitors design, synthesis and pharmacokinetic assessment” (Bioorg Med Chem Lett, 2016)
